Values quoted from earlier work, collected in PMC7250496 (Journal of medicinal chemistry, 2020).

Experiments:
mMC5R = mMC5R (Mus musculus, UniProt P41149); conditions: previously reported ref 80
mMC3R = mMC3R (Mus musculus, UniProt P33033); conditions: previously reported ref 80
Chain of mMC3R (P33033 whole entry): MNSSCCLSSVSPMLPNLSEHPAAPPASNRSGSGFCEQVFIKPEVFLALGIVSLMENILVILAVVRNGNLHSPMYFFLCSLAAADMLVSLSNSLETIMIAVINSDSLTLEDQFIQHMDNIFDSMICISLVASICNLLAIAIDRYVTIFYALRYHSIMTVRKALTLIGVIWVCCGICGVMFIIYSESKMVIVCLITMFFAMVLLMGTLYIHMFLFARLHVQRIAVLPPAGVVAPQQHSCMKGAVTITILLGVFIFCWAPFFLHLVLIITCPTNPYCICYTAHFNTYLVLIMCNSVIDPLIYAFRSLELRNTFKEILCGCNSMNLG

Chain of mMC5R (P41149 whole entry): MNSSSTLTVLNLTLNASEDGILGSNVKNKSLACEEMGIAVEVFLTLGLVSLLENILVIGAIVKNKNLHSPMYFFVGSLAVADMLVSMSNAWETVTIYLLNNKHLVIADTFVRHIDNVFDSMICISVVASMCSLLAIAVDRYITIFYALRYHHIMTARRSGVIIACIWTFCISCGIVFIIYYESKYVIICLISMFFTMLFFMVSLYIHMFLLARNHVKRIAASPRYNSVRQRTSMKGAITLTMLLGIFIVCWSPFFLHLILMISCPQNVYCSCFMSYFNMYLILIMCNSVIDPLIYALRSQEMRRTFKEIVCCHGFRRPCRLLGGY

mMC5R Inverse Agonist, percent decrease from basal (mMC5R): Inverse Agonist −15%
mMC3R pA2 (mMC3R; antagonist, Schild analysis, agonist NDP-MSH): 6.5 ± 0.09
EC50 (mMC3R; read-out: mMC3R EC50, agonist): > 100 µM
SMILES: C[C@@H]1NC(=O)[C@H](CN)NC(=O)[C@H](Cc2ccccc2)NC(=O)[C@H](Cc2ccccc2)NC(=O)[C@H](CCCNC(=N)N)NC(=O)[C@@H]2CCCN2C(=O)[C@H]2CCCN2C(=O)[C@H](Cc2ccccc2)NC1=O [Compound 2, c[Pro-Arg-Phe-Phe-Dap-Ala-Phe-DPro]]
